Assay results as given in patent publication US20080171732A1, “New Pyridine Analogues IX 519” (AstraZeneca AB, priority 2007, published 2008).

Molecular target: T1, P2Y12 receptor (Homo sapiens, UniProt Q9H244)
T1 construct: expressed in transfected cells; host or cells: CHO cells (membranes)
Assay: Functional inhibition of 2-Me-S-ADP induced P2Y12 signalling (35S-GTPγS, cell membranes from P2Y12 transfected CHO-cells)
Assay type: biochemical
Settings: EC80 concentration of agonist 2-methyl-thio-adenosine diphosphate, 30° C., 45 min
Experimental: Functional inhibition of-the P2Y12 receptor can be measured by in vitro assays using cell membranes from P2Y12 transfected CHO-cells, the methodology is indicated below.
(§1) Functional inhibition of 2-Me-S-ADP induced P2Y12 signalling: 5 μg of membranes were diluted in 200 μl of 200 mM NaCl, 1 mM MgCl2, 50 mM HEPES (pH 7.4), 0.01% BSA, 30μg/ml saponin and 10 μM GDP. To this was added an EC80 concentration of agonist (2-methyl-thio-adenosine diphosphate), the required concentration of test compound and 0.1 μCi ^35S-GTPγS. The reaction was allowed to proceed at 30° C. for 45 min. Samples were then transferred on to GF/B filters using a cell harvester and washed with wash buffer (50 mM Tris (pH 7.4), 5 mM MgCl2, 50 mM NaCl). Filters were then covered with scintilant and counted for the amount of ^35S-GTPγS retained by the filter. Maximum activity was that determined in the presence of the agonist and minimum activity in the absence of the agonist following subtraction of the value determined for non-specific activity. The effect of compounds at various concentrations was plotted according to the equation
y=A+((B−A)/(1+((C/x)̂D)))
and IC50 estimated where • A is the bottom plateau of the curve i.e. the final minimum y value • B is the top of the plateau of the curve i.e. the final maximum y value • C is the x value at the middle of the curve. This represents the log EC50 value when A+B=100 • D is the slope factor. • x is the original known x values. • Y is the original known y values.
as §1, with “30 μg/ml” for “30μg/ml”, “0. 1” for “0.1”

T1 sequence (Q9H244 whole entry): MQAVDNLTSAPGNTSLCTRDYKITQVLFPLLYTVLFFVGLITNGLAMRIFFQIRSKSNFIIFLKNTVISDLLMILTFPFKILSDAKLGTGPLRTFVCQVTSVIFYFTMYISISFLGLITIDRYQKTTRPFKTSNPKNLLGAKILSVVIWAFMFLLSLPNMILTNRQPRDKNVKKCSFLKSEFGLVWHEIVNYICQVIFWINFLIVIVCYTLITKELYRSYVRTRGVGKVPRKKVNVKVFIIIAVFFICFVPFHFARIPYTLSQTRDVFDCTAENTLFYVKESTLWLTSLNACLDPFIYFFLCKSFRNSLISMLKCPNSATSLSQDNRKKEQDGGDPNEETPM

CCOCc1nc(N2CC(C(=O)NS(=O)(=O)Cc3ccccc3)C2)c(C#N)cc1C(=O)OCC [Example 33, Ethyl6-{3-[(benzylsulfonyl)carbamoyl]azetidin-1-yl}-5-cyano-2-(ethoxymethyl)nicotinate]
IC50: 0.069 µM

CCOCc1nc(N2CCC(C(=O)NS(=O)(=O)Cc3ccccc3)CC2)c(C#N)cc1C(=O)OCC [Example 34, Ethyl6-{4-[(benzylsulfonyl)carbamoyl]piperidin-1-yl}-5-cyano-2-(ethoxymethyl)nicotinate]
IC50: 0.034 µM

CCOC(=O)c1cc(C#N)c(N2CCC(C(=O)NS(=O)(=O)Cc3ccccc3)CC2)nc1COCc1ccccc1 [Example 36, Ethyl2-[(benzyloxy)methyl]-6-{4-[(benzylsulfonyl)carbamoyl]piperidin-1-yl}-5-cyanonicotinate]
IC50: 0.055 µM

CCOC(=O)c1cc(C#N)c(N2CC(C(=O)NS(=O)(=O)Cc3ccccc3)C2)nc1CO [Example 37, Ethyl6-{3-[(benzylsulfonyl)carbamoyl]azetidin-1-yl}-5-cyano-2-(hydroxymethyl)nicotinate]
IC50: 0.047 µM

CCOC(=O)c1cc(C#N)c(N2CC(C(=O)NS(=O)(=O)Cc3ccccc3)C2)nc1OCC [Example 38, Ethyl6-{3-[(benzylsulfonyl)carbamoyl]azetidin-1-yl}-5-cyano-2-ethoxynicotinate]
IC50: 0.047 µM

CCOC(=O)c1cc(C#N)c(N2CC(C(=O)NS(=O)(=O)Cc3ccc(F)cc3)C2)nc1OCC [Example 39, Ethyl5-cyano-2-ethoxy-6-(3-{[(4-fluorobenzyl)sulfonyl]carbamoyl}azetidin-1-yl)nicotinate]
IC50: 0.032 µM

CCOC(=O)c1cc(C#N)c(N2CC(C(=O)NS(=O)(=O)Cc3ccccc3F)C2)nc1OCC [Example 40, Ethyl5-cyano-2-ethoxy-6-(3-{[(2-fluorobenzyl)sulfonyl]carbamoyl}azetidin-1-yl)nicotinate]
IC50: 0.031 µM

CCOC(=O)c1cc(C#N)c(N2CC(C(=O)NS(=O)(=O)Cc3ccc(F)cc3F)C2)nc1OCC [Example 41, Ethyl5-cyano-6-(3-{[(2,4-difluorobenzyl)sulfonyl]carbamoyl}azetidin-1-yl)-2-ethoxynicotinate]
IC50: 0.087 µM

CCOC(=O)c1cc(C#N)c(N2CC(C(=O)NS(=O)(=O)Cc3ccccc3)C2)nc1COCc1ccc(OC)c(OC)c1 [Example 42, Ethyl6-{3-[(benzylsulfonyl)carbamoyl]azetidin-1-yl}-5-cyano-2-{[(3,4-dimethoxybenzyl)oxy]methyl}nicotinate]
IC50: 0.135 µM

CCOC(=O)c1cc(Cl)c(N2CCC(C(=O)NS(=O)(=O)Cc3ccc(Cl)cc3)CC2)nc1SC [Example 43, Ethyl5-chloro-6-(4-{[(4-chlorobenzyl)sulfonyl]carbamoyl}piperidin-1-yl)-2-(methylthio)nicotinate]
IC50: 0.132 µM

CCOC(=O)c1cc(F)c(N2CCC(C(=O)NS(=O)(=O)Cc3ccccc3)CC2)nc1SC [Example 44, Ethyl6-{4-[(benzylsulfonyl)carbamoyl]piperidin-1-yl}-5-fluoro-2-(methylthio)nicotinate]
IC50: 0.042 µM

CCOC(=O)c1cc(C#N)c(N2CCC(C(=O)NS(=O)(=O)Cc3ccccc3)CC2)nc1CCOC [Example 45, Ethyl6-{4-[(benzylsulfonyl)carbamoyl]piperidin-1-yl}-5-cyano-2-(2-methoxyethyl)nicotinate]
IC50: 0.06 µM

CCOC(=O)c1cc(F)c(N2CCC(C(=O)NS(=O)(=O)Cc3ccccc3)CC2)nc1Cl [Example 46, Ethyl6-{4-[(benzylsulfonyl)carbamoyl]piperidin-1-yl}-2-chloro-5-fluoronicotinate]
IC50: 0.048 µM

CCOC(=O)c1cc(C#N)c(N2CCC(C(=O)NS(=O)(=O)Cc3ccccc3)CC2)nc1Cn1cncn1 [Example 47, Ethyl6-{4-[(benzylsulfonyl)carbamoyl]piperidin-1-yl}-5-cyano-2-(1H-1,2,4-triazol-1-ylmethyl)nicotinate]
IC50: 0.077 µM

CCOC(=O)c1cc(C#N)c(N2CCC(C(=O)NS(=O)(=O)Cc3ccccc3)CC2)nc1Cn1ccnn1 [Example 48]
IC50: 0.032 µM

CCOC(=O)c1cc(C#N)c(N2CCC(C(=O)NS(=O)(=O)Cc3ccccc3)CC2)nc1Cn1ccnc1 [Example 49, Ethyl6-{4-[(benzylsulfonyl)carbamoyl]piperidin-1-yl}-5-cyano-2-(1H-imidazol-1-ylmethyl)nicotinate]
IC50: 0.073 µM

CC(C)OC(=O)c1cc(C#N)c(N2CCC(C(=O)NS(=O)(=O)Cc3ccccc3)CC2)nc1C#N [Example 50, Isopropyl6-{4-[(benzylsulfonyl)carbamoyl]piperidin-1-yl}-2,5-dicyanonicotinate]
IC50: 0.016 µM

CCCC(=O)c1cc(C#N)c(N2CCC(C(=O)NS(=O)(=O)Cc3ccc(F)cc3)CC2)nc1OC [Example 51, 1-(5-Butyryl-3-cyano-6-methoxypyridin-2-yl)-N-[(4-fluorobenzyl)sulfonyl]piperidine-4-carboxamide]
IC50: 0.05 µM

CCCC(=O)c1cc(C#N)c(N2CCC(C(=O)NS(=O)(=O)Cc3ccc(Cl)cc3)CC2)nc1OC [Example 52, 1-(5-Butyryl-3-cyano-6-methoxypyridin-2-yl)-N-[(4-chlorobenzyl)sulfonyl]piperidine-4-carboxamide]
IC50: 0.055 µM

CCCC(=O)c1cc(C#N)c(N2CCC(C(=O)NS(=O)(=O)Cc3ccccc3)CC2)nc1OC [Example 53, N-(Benzylsulfonyl)-1-(5-butyryl-3-cyano-6-methoxypyridin-2-yl)piperidine-4-carboxamide]
IC50: 0.076 µM

CCOC(=O)c1cc(Cl)c(N2CCC(C(=O)NS(=O)(=O)Cc3ccccc3)CC2)nc1SC [Example 54, Ethyl6-{4-[(benzylsulfonyl)carbamoyl]piperidin-1-yl}-5-chloro-2-(methylthio)nicotinate]
IC50: 0.039 µM

COc1nc(N2CCC(C(=O)NS(=O)(=O)Cc3ccc(Cl)cc3)CC2)c(C#N)cc1C(=O)OC(C)C [Example 55, Isopropyl6-(4-{[(4-chlorobenzyl)sulfonyl]carbamoyl}piperidin-1-yl)-5-cyano-2-methoxynicotinate]
IC50: 0.011 µM

COc1nc(N2CCC(C(=O)NS(=O)(=O)Cc3ccc(F)cc3)CC2)c(C#N)cc1C(=O)OC(C)C [Example 56, Isopropyl5-cyano-6-(4-{[(4-fluorobenzyl)sulfonyl]carbamoyl}piperidin-1-yl)-2-methoxynicotinate]
IC50: 0.025 µM

CCOC(=O)c1cc(C#N)c(N2CC(C(=O)NS(=O)(=O)Cc3ccccc3)C2)nc1SC [Example 57, Ethyl6-{3-[(benzylsulfonyl)carbamoyl]azetidin-1-yl}-5-cyano-2-(methylthio)nicotinate]
IC50: 0.018 µM

CCOC(=O)c1cc(C#N)c(N2CCC(C(=O)NS(=O)(=O)Cc3ccccc3)CC2)nc1SC [Example 58, Ethyl6-{4-[(benzylsulfonyl)carbamoyl]piperidin-1-yl}-5-cyano-2-(methylthio)nicotinate]
IC50: 0.0077 µM

CCOC(=O)c1cc(Cl)c(N2CCC(C(=O)NS(=O)(=O)Cc3ccccc3)CC2)nc1Cl [Example 59, Ethyl6-{4-[(benzylsulfonyl)carbamoyl]piperidin-1-yl}-2,5-dichloronicotinate]
IC50: 0.033 µM

COc1nc(N2CCC(C(=O)NS(=O)(=O)Cc3ccccc3)CC2)c(C#N)cc1C(=O)OC(C)C [Example 60, Isopropyl6-{4-[(benzylsulfonyl)carbamoyl]piperidin-1-yl}-5-cyano-2-methoxynicotinate]
IC50: 0.027 µM

Ethyl5-cyano-6-(3-{[(2-fluorobenzyl)sulfonyl]carbamoyl}azetidin-1-yl)-2-methoxynicotinate [Example 21]
IC50: 0.015 µM
